PubChem BioAssay AID540365 (The Scripps Research Institute Molecular Screening Center, 2011)
pIC50: −log10 of the molar value. Calls of active or inactive are those of the source. How the calls were made is not given here.

Biological target: Neuropeptides B/W receptor type 1 (Homo sapiens) (UniProt P48145)
Experiment: GPR7 antagonists, late-stage follow-up, cell-based, fluorescence, dose response, set 3 (AID 540365)
Details: GPR7-expressing cells, fluorescence antagonist read-out

COc1ccc(Oc2c(Cl)cnn(Cc3ccc4ccccc4c3)c2=O)cc1
pIC50 (run 1): 5.83
pIC50 (run 2): 5.71
pIC50 (run 3): 5.69

C=Cc1nn(Cc2ccccc2C)c(=O)c(Oc2ccc(OC)cc2)c1C=C
pIC50 (run 1): 6.38
pIC50 (run 2): 6.09
pIC50 (run 3): 6.09

CCOc1ccc(Oc2c(Cl)cnn(C3c4ccccc4-c4ccccc43)c2=O)cc1
pIC50 (run 1): 6.32
pIC50 (run 2): 6.77
pIC50 (run 3): 6.68

COc1ccc(Oc2c(C#N)cnn(Cc3cccc4ccccc34)c2=O)cc1
pIC50 (run 1): 5.88
pIC50 (run 2): 5.77
pIC50 (run 3): 5.60

COc1ccc(Oc2c(Cl)cnn(Cc3cccc4cnccc34)c2=O)cc1
pIC50 (run 1): 5.47
pIC50 (run 2): 5.39
pIC50 (run 3): 5.31

COc1ccc(Sc2c(Cl)cnn(Cc3cccc4ccccc34)c2=O)cc1
pIC50 (run 1): 6.18
pIC50 (run 2): 5.99

CCOc1ccc(Oc2c(Cl)c(Br)nn(Cc3cccc4ccccc34)c2=O)cc1
pIC50 (run 1): 6.75
pIC50 (run 2): 6.63

COc1ccc(Oc2c(Br)cnn(Cc3cccc4ccccc34)c2=O)cc1
pIC50 (run 1): 6.88
pIC50 (run 2): 6.62
pIC50 (run 3): 6.62

COc1ccc(Nc2c(Cl)cnn(Cc3cccc4ccccc34)c2=O)cc1
IC50 (run 1): inactive
pIC50 (run 2): 5.02
IC50 (run 3): > 20000 nM (inactive)

COc1ccc(Oc2c(Cl)cnn(Cc3c(F)cccc3F)c2=O)cc1
pIC50 (run 1): 6.07
pIC50 (run 2): 6.14
pIC50 (run 3): 6.14

CCOc1ccc(Oc2c(S(C)=O)cnn(Cc3cccc4ccccc34)c2=O)cc1 (centres undefined)
pIC50 (run 1): 5.65
pIC50 (run 2): 5.67
pIC50 (run 3): 5.68

COc1ccc(Oc2c(Cl)c(C#N)nn(Cc3ccccc3C)c2=O)cc1
pIC50 (run 1): 5.96
pIC50 (run 2): 5.90
pIC50 (run 3): 5.92

CCCOc1ccc(Oc2c(Cl)cnn(Cc3cccc4ccccc34)c2=O)cc1
pIC50 (run 1): 5.94
pIC50 (run 2): 5.97
pIC50 (run 3): 5.95

CCCOc1ccc(Oc2c(Cl)cnn(C3c4ccccc4-c4ccccc43)c2=O)cc1
IC50 (run 1): > 20000 nM (inactive)
IC50 (run 2): > 20000 nM (inactive)
IC50 (run 3): > 20000 nM (inactive)

CCOC(=O)C(c1ccccc1)n1ncc(Cl)c(Oc2ccc(OC)cc2)c1=O (centres undefined)
pIC50 (run 1): 5.88
pIC50 (run 2): 6.06
pIC50 (run 3): 6.02

CCOC(=O)C(c1cccc2ccccc12)n1ncc(Cl)c(Oc2ccc(OC)cc2)c1=O (centres undefined)
pIC50 (run 1): 6.35
pIC50 (run 2): 6.22
pIC50 (run 3): 5.88

COc1ccc(Oc2c(Cl)cnn(C(c3ccccc3)c3ccccc3)c2=O)cc1
pIC50 (run 1): 6.24
pIC50 (run 2): 6.30
pIC50 (run 3): 6.32
